Several values for one entry are separate records, joined by “and”; a condition that tells them apart may be missing. Identical values can stand only once.
Assays:
human GPR43 (FFAR2) = molecular target: T1, human GPR43 (FFAR2) (Homo sapiens, UniProt O15552); test: cAMP (LANCE) functional assay, CHO cells expressing human GPR43; assay type: cell-based
T1 construct: expressed in transfected cells
T1 sequence (O15552 1-330): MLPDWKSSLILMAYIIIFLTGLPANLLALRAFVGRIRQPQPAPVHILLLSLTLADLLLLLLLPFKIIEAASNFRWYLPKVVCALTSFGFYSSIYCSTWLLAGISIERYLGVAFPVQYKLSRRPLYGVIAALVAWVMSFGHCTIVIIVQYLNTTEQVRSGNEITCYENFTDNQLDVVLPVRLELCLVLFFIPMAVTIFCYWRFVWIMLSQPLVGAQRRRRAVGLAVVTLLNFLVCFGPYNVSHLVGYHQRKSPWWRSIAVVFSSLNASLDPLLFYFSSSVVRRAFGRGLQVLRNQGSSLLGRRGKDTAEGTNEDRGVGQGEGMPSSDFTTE
Method: CHO cells stably expressing human GPR41 or human GPR43 were harvested with non-enzymatic cell dissociation buffer and re-suspended in LANCE stimulation buffer (prepared as described by PE) at 0.25 million cells per ml (3.3 million cells per ml for GPR43) and 6 μl was then plated into each well of a 384-well Culturplate. Compounds were serially diluted in DMSO and then diluted further into stimulation buffer containing 2 μM forskolin (Sigma) at 2-times final concentration in the assay. 6 μl of the diluted compounds were then added to the assay plate and the plate incubated for 60 mins at room temperature. After the incubation, 12 μl of detection reagent (prepared as described by PE) was added to each well and the plates incubated one additional hour at room temperature. After the final incubation, the plates were read in a Perkin Elmer Envision reader with a method designed for Time-resolved fluorescence (TRF) assays (340 nm excitation, dual emission 615 and 655 nm). For each assay, a cAMP standard curve plate was also included. All fluorescent readings (using the 655/615 nm ratio) were converted to cAMP concentration using the cAMP standard curve and the percent activity at each concentration of test compound was determined using 0% activation (basal activity) determined in those wells containing DMSO alone, while 100% activity was determined in wells containing a concentration of agonist know to maximally activate the receptor.

GK rats = test: OGTT with insulin co-measurement on Day 13 of chronic treatment, parallel set of animals; assay type: in vivo, rat; parameters: Change in plasma insulin from baseline during OGTT (delta insulin): unit not given here; conditions: for Change in plasma insulin from baseline during OGTT (delta insulin): day 13, individual animals
Method: On the day of the study, male GK rats were bled via tail snip, and blood glucose was measured via glucometer (OneTouch Ultra, Lifescan Inc., Milpitas, CA). Fed glucose was measured at 8 A.M. (lights on 7 A.M.– 7 P.M.) and used to select and sort animals into treatment groups (n = 8/ GK group, plus n = 6/WKY control group). Animals were then placed into clean cages, and food was removed. After a 5 hr fast, glucose was measured at time = -60 min, followed by administration of vehicle plus or minus compound via oral gavage (PO) at a dosing volume of 5 ml/kg. Dosages from 0.3–10 mg MK-2305 / kg body weight were tested. Both the GK and WKY control groups received vehicle (0.5% methylcellulose). Blood glucose was measured again (time = 0) immediately prior to a dextrose challenge of 1 g/kg at 10 ml/kg dose volume (Dextrose, Hospira Inc., Lake Forrest IL) and then again at 20, 40, 60, and 120 min after the glucose challenge. Insulin was co-measured to test the glucose-dependent secretory response to MK-2305 delivered acutely PO. To capture insulin secretion during the OGTT, blood was collected at t = -60, 0, 20, 40, 60 min post glucose challenge. […] Values of percent inhibition vs. vehicle for each treatment were generated from the AUC data. Maximally efficacious dose (MED) was defined as the minimum dosage generating a maximum inhibition of glucose excursion achieved with this compound in the OGTT assay.
In a parallel set of animals (n = 30) treated with standard diet or MK-2305 at 30 mg/kg diet, an OGTT with insulin co-measurement was performed on Day 13. On the day of OGTT, n = 10 vehicle animals and n = 10 MK-2305-treated animals were administered 0.5% methylcellulose PO at a dosing volume of 5 ml/kg. For an acute comparison, n = 10 vehicle animals were administered MK-2305 at 30 mg/kg PO. The procedure for an acute OGTT was identical to that described above.

O=C1NC(=O)C(C2CCOc3cc(Oc4ccc(C(F)(F)F)cc4Cl)ccc32)S1 (centres unmarked) [MK-2305]
% Activation (human GPR43 (FFAR2); @ 25 μM): 61 @ 25 μM % and 61% | % Effect (human GPR43 (FFAR2); Dose 1.267 nM): -23% | % Effect (human GPR43 (FFAR2); Dose 3.801 nM): -37% | % Effect (human GPR43 (FFAR2); Dose 34.208 nM): -32% | % Effect (human GPR43 (FFAR2); Dose 102.624 nM): 25% | % Effect (human GPR43 (FFAR2); Dose 307.872 nM): -78% | % Effect (human GPR43 (FFAR2); Dose 923.617 nM): -34% | % Effect (human GPR43 (FFAR2); Dose 2770.85 nM): -39% | % Effect (human GPR43 (FFAR2); Dose 8312.55 nM): -23% | % Effect (human GPR43 (FFAR2); Dose 24938 nM): 61% | EC50 (human GPR43 (FFAR2); cAMP, CHO cells expressing human GPR43): > 25 µM | Change in plasma insulin from baseline during OGTT (delta insulin) (GK rats; Acute, 30 mpk, Time 0, 30 mg/kg): 0.309 and 1.604 and 0.324 and 0.21 and 0.156 and 0.86 and 1.776 and 0.805 and -0.061 and 0.012 | Change in plasma insulin from baseline during OGTT (delta insulin) (GK rats; Acute, 30 mpk, Time 20, 30 mg/kg): 1.499 and 1.114 and 1.989 and 2.273 and 1.824 and -0.14 and 3.286 and 1.17 and 0.172 and 0.765 | Change in plasma insulin from baseline during OGTT (delta insulin) (GK rats; Acute, 30 mpk, Time 60, 30 mg/kg): 0.099 and 0.177 and 0.004 and -0.004 and -0.413 and -0.187 and -0.251 and 0.259 and -0.133 and 0.416 | Change in plasma insulin from baseline during OGTT (delta insulin) (GK rats; Acute, 30 mpk, Time -60): 0 | Change in plasma insulin from baseline during OGTT (delta insulin) (GK rats; Chronic, 30 mkd, Time 0): 0.06 and -0.177 and -0.627 and -0.109 and -0.564 and -0.273 and 0.845 and 0.077 and 0.103 and 0.198 | Change in plasma insulin from baseline during OGTT (delta insulin) (GK rats; Chronic, 30 mkd, Time 20): 0.473 and 0.233 and 0.417 and 0.389 and 0.164 and 0.072 and 0 and 0.34 and 0.387 and 0.196 | Change in plasma insulin from baseline during OGTT (delta insulin) (GK rats; Chronic, 30 mkd, Time 60): -0.534 and -0.189 and -0.192 and 0.192 and -0.625 and -0.523 and -0.322 and -0.003 and -0.166 and -0.044 | Change in plasma insulin from baseline during OGTT (delta insulin) (GK rats; Chronic, 30 mkd, Time -60): 0 | effect on plasma insulin after a glucose challenge (GK rats; OGTT Day 13, 30 mg/kg acutely PO and chronically in diet, vs. vehicle): increased plasma insulin

Reference: publication PMC5441580, “GPR40 partial agonist MK-2305 lower fasting glucose in the Goto Kakizaki rat via suppression of endogenous glucose production” (PLoS ONE, 2017)
